Measured values as given in the NIST ThermoML archive (doi:10.1021/acs.jced.5b00820).
Numbers after ± are expanded uncertainties.

Assay: refractive index (Na D-line) (dimensionless); xn = mol fraction of the nth substance listed
Conditions: 102.2 kPa, Liquid, Standard Abbe refractometry

C[Si](C)(O[Si](C)(C)c1ccccc1)c1ccccc1 [1,3-diphenyltetramethyldisiloxane] + C=C[Si](C)(C)O[Si](C)(C)C=C
refractive index
Conditions	308.15 K	313.15 K	318.15 K	323.15 K	328.15 K
x1 = 0.0502	1.41155 ± 0.00036	1.40892 ± 0.00036	1.40628 ± 0.00036	1.40366 ± 0.00036	1.40099 ± 0.00036
x1 = 0.1	1.41834 ± 0.00036	1.41574 ± 0.00036	1.41315 ± 0.00036	1.41057 ± 0.00036	1.40797 ± 0.00036
x1 = 0.1487	1.42478 ± 0.00036	1.42224 ± 0.00036	1.41967 ± 0.00036	1.41713 ± 0.00036	1.41456 ± 0.00036
x1 = 0.2002	1.43134 ± 0.00035	1.42886 ± 0.00035	1.42631 ± 0.00035	1.42381 ± 0.00035	1.42128 ± 0.00035
x1 = 0.2498	1.43748 ± 0.00035	1.43501 ± 0.00035	1.43251 ± 0.00035	1.43004 ± 0.00035	1.4275 ± 0.00035
x1 = 0.3	1.44347 ± 0.00035	1.44103 ± 0.00035	1.43853 ± 0.00035	1.43607 ± 0.00035	1.43356 ± 0.00035
x1 = 0.3503	1.4493 ± 0.00035	1.44687 ± 0.00035	1.4444 ± 0.00035	1.44199 ± 0.00035	1.43951 ± 0.00035
x1 = 0.3994	1.45477 ± 0.00035	1.45239 ± 0.00035	1.44994 ± 0.00035	1.44752 ± 0.00035	1.44508 ± 0.00035
x1 = 0.4502	1.46032 ± 0.00035	1.45792 ± 0.00035	1.45549 ± 0.00035	1.45314 ± 0.00035	1.45071 ± 0.00035
x1 = 0.5001	1.46558 ± 0.00035	1.46321 ± 0.00035	1.46081 ± 0.00035	1.45844 ± 0.00035	1.45605 ± 0.00035
x1 = 0.5498	1.47066 ± 0.00035	1.46834 ± 0.00035	1.46594 ± 0.00035	1.4636 ± 0.00035	1.4612 ± 0.00035
x1 = 0.6002	1.47565 ± 0.00035	1.47332 ± 0.00035	1.47093 ± 0.00035	1.46859 ± 0.00035	1.46619 ± 0.00035
x1 = 0.6502	1.48048 ± 0.00035	1.47816 ± 0.00035	1.47577 ± 0.00035	1.47346 ± 0.00035	1.47107 ± 0.00035
x1 = 0.7004	1.48515 ± 0.00035	1.48285 ± 0.00035	1.48049 ± 0.00035	1.47821 ± 0.00035	1.47583 ± 0.00035
x1 = 0.7504	1.48971 ± 0.00035	1.48739 ± 0.00035	1.48506 ± 0.00035	1.48275 ± 0.00035	1.48038 ± 0.00035
x1 = 0.8003	1.4941 ± 0.0004	1.49177 ± 0.00035	1.48948 ± 0.00035	1.48715 ± 0.00035	1.48483 ± 0.00035
x1 = 0.8498	1.49836 ± 0.00035	1.49606 ± 0.00035	1.49375 ± 0.00035	1.49142 ± 0.00035	1.48912 ± 0.00035
x1 = 0.8986	1.50242 ± 0.00035	1.50013 ± 0.00035	1.49781 ± 0.00035	1.49552 ± 0.00035	1.4932 ± 0.00035
x1 = 0.9502	1.50659 ± 0.00035	1.50428 ± 0.00035	1.50198 ± 0.00035	1.49974 ± 0.00035	1.49743 ± 0.00035
x1 = 1	1.51052 ± 0.00035	1.5082 ± 0.0004	1.50593 ± 0.00035	1.50366 ± 0.00035	1.50133 ± 0.00035

C[Si](C)(O[Si](C)(C)c1ccccc1)c1ccccc1 [1,3-diphenyltetramethyldisiloxane] + C[Si]1(C)O[Si](C)(C)O[Si](C)(C)O[Si](C)(C)O1
refractive index
Conditions	308.15 K	313.15 K	318.15 K	323.15 K	328.15 K
x1 = 0.05	1.3951 ± 0.00036	1.39261 ± 0.00036	1.3901 ± 0.0004	1.38762 ± 0.00036	1.38512 ± 0.00036
x1 = 0.0999	1.40098 ± 0.00036	1.39849 ± 0.00036	1.39602 ± 0.00036	1.39357 ± 0.00036	1.39102 ± 0.00036
x1 = 0.1503	1.40694 ± 0.00036	1.40447 ± 0.00036	1.40199 ± 0.00036	1.39957 ± 0.00036	1.39707 ± 0.00036
x1 = 0.2005	1.41292 ± 0.00036	1.41044 ± 0.00036	1.40799 ± 0.00036	1.40557 ± 0.00036	1.40311 ± 0.00036
x1 = 0.2507	1.41891 ± 0.00036	1.41644 ± 0.00036	1.41401 ± 0.00036	1.41159 ± 0.00036	1.40913 ± 0.00036
x1 = 0.2963	1.42436 ± 0.00036	1.42193 ± 0.00036	1.41951 ± 0.00036	1.41708 ± 0.00036	1.41464 ± 0.00036
x1 = 0.3509	1.43091 ± 0.00036	1.42847 ± 0.00036	1.42607 ± 0.00036	1.42366 ± 0.00036	1.42126 ± 0.00036
x1 = 0.4001	1.43683 ± 0.00036	1.4344 ± 0.00036	1.43201 ± 0.00036	1.42964 ± 0.00036	1.42721 ± 0.00036
x1 = 0.4471	1.44251 ± 0.00036	1.44009 ± 0.00036	1.4377 ± 0.0004	1.4353 ± 0.0004	1.4329 ± 0.00036
x1 = 0.4968	1.44855 ± 0.00035	1.44616 ± 0.00035	1.44376 ± 0.00035	1.44142 ± 0.00035	1.43901 ± 0.00035
x1 = 0.5512	1.45518 ± 0.00035	1.45281 ± 0.00035	1.45043 ± 0.00035	1.44806 ± 0.00035	1.44571 ± 0.00035
x1 = 0.6003	1.46117 ± 0.00035	1.45878 ± 0.00035	1.45644 ± 0.00035	1.45407 ± 0.00035	1.45173 ± 0.00035
x1 = 0.6502	1.46727 ± 0.00035	1.46493 ± 0.00035	1.46256 ± 0.00035	1.46023 ± 0.00035	1.45785 ± 0.00035
x1 = 0.7001	1.47342 ± 0.00035	1.47107 ± 0.00035	1.46872 ± 0.00035	1.46638 ± 0.00035	1.46407 ± 0.00035
x1 = 0.7497	1.47954 ± 0.00035	1.47718 ± 0.00035	1.47488 ± 0.00035	1.47255 ± 0.00035	1.47021 ± 0.00035
x1 = 0.8	1.48577 ± 0.00035	1.48342 ± 0.00035	1.48109 ± 0.00035	1.47882 ± 0.00035	1.47646 ± 0.00035
x1 = 0.85	1.49197 ± 0.00035	1.48966 ± 0.00035	1.48733 ± 0.00035	1.48504 ± 0.00035	1.48273 ± 0.00035
x1 = 0.896	1.49768 ± 0.00035	1.49532 ± 0.00035	1.49303 ± 0.00035	1.49072 ± 0.00035	1.48841 ± 0.00035
x1 = 0.9497	1.50436 ± 0.00035	1.50202 ± 0.00035	1.49976 ± 0.00035	1.49748 ± 0.00035	1.49518 ± 0.00035
x1 = 1	1.51064 ± 0.00035	1.50832 ± 0.00035	1.50605 ± 0.00035	1.50377 ± 0.00035	1.50144 ± 0.00035

C[Si](C)(O[Si](C)(C)c1ccccc1)c1ccccc1 [1,3-diphenyltetramethyldisiloxane] + C[Si]1(CCC(F)(F)F)O[Si](C)(CCC(F)(F)F)O[Si](C)(CCC(F)(F)F)O1
refractive index
Conditions	308.15 K	313.15 K	318.15 K	323.15 K	328.15 K
x1 = 0.0501	1.36577 ± 0.00035	1.36376 ± 0.00035	1.36177 ± 0.00035	1.35973 ± 0.00035	1.3577 ± 0.0004
x1 = 0.1001	1.37152 ± 0.00035	1.36949 ± 0.00035	1.36745 ± 0.00035	1.36544 ± 0.00035	1.36339 ± 0.00035
x1 = 0.1499	1.37745 ± 0.00035	1.37541 ± 0.00035	1.37337 ± 0.00035	1.37133 ± 0.00035	1.36931 ± 0.00035
x1 = 0.2005	1.38359 ± 0.00035	1.38155 ± 0.00035	1.3795 ± 0.00035	1.37746 ± 0.00035	1.37541 ± 0.00035
x1 = 0.2497	1.38975 ± 0.00035	1.38769 ± 0.00035	1.38565 ± 0.00035	1.38355 ± 0.00035	1.38148 ± 0.00035
x1 = 0.3	1.39624 ± 0.00035	1.39416 ± 0.00035	1.39207 ± 0.00035	1.39 ± 0.00035	1.38792 ± 0.00035
x1 = 0.3431	1.40191 ± 0.00035	1.39984 ± 0.00035	1.39775 ± 0.00035	1.39565 ± 0.00035	1.3936 ± 0.00035
x1 = 0.4001	1.40958 ± 0.00035	1.40754 ± 0.00035	1.40546 ± 0.00035	1.40337 ± 0.00035	1.40125 ± 0.00035
x1 = 0.45	1.41665 ± 0.00035	1.41456 ± 0.00035	1.41246 ± 0.00035	1.41033 ± 0.00035	1.40824 ± 0.00035
x1 = 0.4998	1.42386 ± 0.00035	1.42173 ± 0.00035	1.41969 ± 0.00035	1.4175 ± 0.00035	1.41538 ± 0.00035
x1 = 0.5482	1.43101 ± 0.00035	1.42892 ± 0.00035	1.42678 ± 0.00035	1.42465 ± 0.00035	1.42246 ± 0.00035
x1 = 0.5996	1.43889 ± 0.00035	1.43676 ± 0.00035	1.43456 ± 0.00035	1.43246 ± 0.00035	1.43032 ± 0.00035
x1 = 0.6501	1.44686 ± 0.00035	1.44469 ± 0.00035	1.44253 ± 0.00035	1.44035 ± 0.00035	1.43816 ± 0.00035
x1 = 0.7	1.45499 ± 0.00035	1.45282 ± 0.00035	1.45064 ± 0.00035	1.44846 ± 0.00035	1.44627 ± 0.00035
x1 = 0.75	1.4634 ± 0.00035	1.4612 ± 0.00035	1.459 ± 0.00035	1.45683 ± 0.00035	1.4546 ± 0.0004
x1 = 0.8001	1.4721 ± 0.00035	1.46989 ± 0.00035	1.46772 ± 0.00035	1.4655 ± 0.00035	1.46326 ± 0.00035
x1 = 0.8499	1.48104 ± 0.00035	1.47886 ± 0.00035	1.47659 ± 0.00035	1.47441 ± 0.00035	1.47215 ± 0.00035
x1 = 0.8998	1.49033 ± 0.00035	1.48806 ± 0.00035	1.48584 ± 0.00035	1.48362 ± 0.00035	1.48135 ± 0.00035
x1 = 0.95	1.5001 ± 0.00035	1.49782 ± 0.00035	1.49555 ± 0.00035	1.49332 ± 0.00035	1.49106 ± 0.00035
x1 = 1	1.51009 ± 0.00035	1.50782 ± 0.00035	1.50561 ± 0.00035	1.50332 ± 0.00035	1.501 ± 0.00035
